What was measured:
tumors expressing IDO = settings: mice with IDO-transfected tumors; cited from earlier work
IDO mRNA = IDO mRNA expression by quantitative RT-PCR in monocyte-derived DCs; format: cell-based, human; settings: for effect on IDO mRNA levels induced by PGE2 or forskolin plus TNFα: inhibitor present during 48 hrs culture
Experimental: Isolation and preparation of cells. Peripheral blood mononuclear cells (PBMCs), DCs and T cells were prepared as described. Briefly, buffy coats were obtained from normal donors (EFS, Rungis) and PBMCs were isolated by sedimentation over Ficoll-Hypaque (Pharmacia Biotech, Piscataway, N.J.). CD 14-enriched and CD-14-depleted fractions were prepared by the use of CD14 Miltenyi microbeads followed by magnetic cell sorting according to the manufacturers' instruction (Miltenyi Biotech, Auburn, Calif.). Immature DCs were prepared by the use of CD14+ fraction by culturing cells in the presence of GM-CSF (Berlix, Seattle, Wash.) and IL-4 (R&D Systems, Minneapolis, Minn.) for 7 days. GM-CSF (1000 U/ml) and IL-4 (500 U/ml) were added to the cultures on days 0, 2, and 4. To generate mature DCs, the cultures were transferred to fresh wells on days 6-7 and the indicated maturation stimulus was added for an additional 1-2 days. At days 6-7, >95% of the cells were CD13^−CD83^−HLA-r^lo DCs. After maturation, on days 8-9, 70-95% of the cells were of the mature […] phenotype. CD4+ and CD8+ T cells were purified from the CD14− fraction to >99% purity by positive selection with the MACS column purification system.
Quantitative analysis of IDO mRNA expression. IDO mRNA detection by real-time PCR. Briefly, RNA was extracted by Tri-reagent (Sigma) and cDNA was synthesized from 1-2 μg RNA using oligo dT (Roche) and Superscript reverse transcriptase (Invitrogen) according to manufacturers' instructions. IDO specific mRNA is quantified relative to GAPDH or TBP (TATA box Binding Protein) using the following primers: IDO forward: 5′[…]-3′ (SEQ ID NO:1), IDO reverse: 5′-[…]-3′ (SEQ ID NO:2), GAPDH forward: 5′[…]-3′ (SEQ ID NO:3), GAPDH reverse: 5′-[…]-3′ (SEQ ID NO:4) TBP forward: 5′-[…]-3′ (SEQ ID NO: 5); TBP reverse: 5′-[…]-3′ (SEQ ID NO: 6),Primers for EP receptors are described in Kamphuis et al. Invest Ophthalmol Vis Sci. 42, 3209-3215 (2001). Quantitative RT-PCR was performed using the SYBR® Green JumpStart™ Taq ReadyMix™ (Sigma) according to manufacturer's instructions. The reactions were run on a PTC200 equipped with a Chromo4™ detector (MJ Research, Mass., USA). […] The ratio gene of interest/housekeeping genes was calculated according to the formula: ratio=2^−dCt (dCT=mean Ct gene−mean Ct housekeeping). […]
Based on IDO's proposed role in immune tolerance, the present inventors evaluated the effect of different DC maturation stimuli on IDO expression. […] The present inventors first established assays to monitor IDO mRNA expression using realtime quantitative RT-PCR (qPCR), and Western blot. RNA was extracted from immature DCs (iDC) exposed to distinct maturation stimuli and IDO expression was quantified as described in the Materials and Methods.

IDO = IDO enzymatic activity, kynurenine by colorimetric assay (Ehrlich's reagent), in monocyte-derived DCs; format: cell-based, human
Experimental: Determination of IDO enzymatic activity and Kynurenine assays. Tryptophan is catabolized by IDO to N-formylkynrenine, which is rapidly converted to kynurenine. Measurement of kynurenine levels is a surrogate marker for IDO activity.
Except where stated, cells were incubated for an additional 4 hours, followed by harvest of supernatant and quantitation of kynurenine by HPLC or using a colormetric assay.
Alternatively, kynurenine concentrations in the culture supernatants were measured using a colormetric assay (i.e., spectrophotometrically). 50 μl of 30% trichloroacetic acid was added to 100 μl of the culture supernatant, vortexed, and then centrifuged at 10,000 rpm for 5 minutes. A 75 μl volume of the supernatant was added to 75 μl of Ehrlich's reagent (100 mg of […], 5 ml of glacial acetic acid) in a microtiter plate well (96-well format). Optical density was measured at 480 nm filter with a Multiskan MS (Labsystems) microplate reader. The values were referred to a standard curve of defined kynurenine concentrations ([…]).
To validate this approach, the present inventors established a standard curve for quantifying kynurenine and compared the experimental values obtained using the calorimetric assay with those from the HPLC analysis.

EP2 = EP2 mRNA expression in DCs by quantitative RT-PCR; format: cell-based, human; settings: relative to TBP
Experimental: (A) The present inventors monitored EP2 and EP4 mRNA expression in DCs exposed to TNFα, PGE2 or a combination of both stimuli. TBP was used as a reference for our qPCR studies as its expression levels matched that of the EP-Rs. White bars represent EP2 levels; black bars indicated EP4 expression. […] All were used at a concentration of 50 μM.
Briefly, RNA was extracted by Tri-reagent (Sigma) and cDNA was synthesized from 1-2 μg RNA using oligo dT (Roche) and Superscript reverse transcriptase (Invitrogen) according to manufacturers' instructions. […] Quantitative RT-PCR was performed using the SYBR® Green JumpStart™ Taq ReadyMix™ (Sigma) according to manufacturer's instructions. The reactions were run on a PTC200 equipped with a Chromo4™ detector (MJ Research, Mass., USA). […] All the measures were performed in duplicates and validated when the difference in Ct between the 2 measures was less than 0.3. […] The ratio gene of interest/housekeeping genes was calculated according to the formula: ratio=2^−dCt (dCT=mean Ct gene−mean Ct housekeeping). GAPDH and TBP were used to normalize for IDO and EP-receptor mRNA expression, respectively.

[1] = target: human prostanoid receptors; settings: four receptors (EP1-4) binding PGE2 with high affinity; cited from earlier work

Cn1cc(C[C@@H](N)C(=O)O)c2ccccc21 [1-MT, 1-Methyl-D-tryptophan]
protective tumor immunity (tumors expressing IDO): recovered the ability to establish protective immunity

O=S(=O)(NCCNC/C=C/c1ccc(Br)cc1)c1cccc2cnccc12 [H-89]
effect on IDO mRNA levels induced by PGE2 or forskolin plus TNFα (IDO mRNA): block IDO expression

CCCCC[C@H](O)/C=C/[C@H]1[C@H](O)CC(=O)[C@@H]1C/C=C\CCCC(=O)O [PGE2, prostaglandin E2]
increase in transcription of IDO (IDO mRNA; PGE2 treated DCs vs iDCs): 50-200 fold
IDO activity (kynurenine, colorimetric), stimulus alone (IDO; DCs treated with the stimulus alone): lacked measurable IDO activity
EP2 mRNA expression (EP2): down-regulation of EP2
Kd [1]: low nM range

Nc1ncnc2c1ncn2C1CCCO1 (centres unmarked) [SQ22536]
effect on IDO mRNA levels induced by PGE2 or forskolin plus TNFα (IDO mRNA): block IDO expression
effect on IDO activity of PGE2/forskolin +/- TNFα matured DC (IDO; inhibitor added during 48 hrs maturation): blocks IDO expression/activity
optimal inhibitor concentration against forskolin-induced IDO (IDO; titrated): 1 mM

CCCC1([C@H](O)C/C=C/[C@H]2[C@H](O)CC(=O)[C@@H]2CCCCCCC(=O)OC)CCC1 [butaprost, Butaprost]
IDO activity in the presence of TNFα (PGE2 replaced) (IDO; iDCs treated in combination with TNFα, 48 hrs): resulted in the induction of IDO activity

TNFα
IDO mRNA expression (in words) (IDO mRNA; iDCs exposed to the stimulus): did not upregulate IDO expression

Reference: patent US20060110371A1, “Control of indoleamine 2,3 deoxygenase expression and activity” (INSTITUT PASTEUR, priority 2004, published 2006)
